Patent publication US20230027361A1, “METTL3 MODULATORS” (priority 2019, published 2023)
Read-outs that look alike come from different tables or passages of the source.

Key:
METTL3/METTL14 = METTL3/METTL14 (Homo sapiens, UniProt Q86U44); test: METTL3-14 Standard Enzyme Assay (METTL3 biochemical assay)
Description: Assays were performed in a 25 μl-volume in 384-well V-bottom polypropylene microplates (Greiner Bio-One, cat. No. 781280) at ambient temperature. Optimized 1× assay buffer was 20 mM HEPES pH 7.5, 50 mM KCl, 250 μM MgCl2, 1 mM DTT, 0.01% Tween, 0.01% BSG, 0.004 U/μl RNAseOUT (cat. No. 10777019, ThermoFisher Scientific, Waltham, Mass.). For compound screening METTL3/METTL14 (final concentration, f.c.=2.5 nM) was added using a Multidrop Combi (ThermoFisher Scientific, Waltham, Mass.) and preincubated for 5 min. Reactions were started by adding 3′ biotinylated RNA ([…]-biotin) (f.c.=100 nM) and 3H-SAM (f.c.=100 nM) substrates. Reactions proceeded for 30 minutes and were quenched with excess non-radioactive SAM (f.c.=15 μM). The reactions were then transferred to streptavidin-coated flashplates and incubated for 2 hours at 25° C. Following two washing cycles with 0.1% Tween-20, the plates were sealed and read on a TopCount (PerkinElmer, Waltham, Mass.) plate-based scintillation counter. For determination of kinetic parameters, reaction times were optimized so that measurements were taken during the initial velocity phase of the reaction.

PRMT5-MEP50 = PRMT5-MEP50 (Homo sapiens, UniProt O14744); test: PRMT5 Assay (PRMT5 biochemical assay)
Chain of PRMT5-MEP50 (O14744 whole entry): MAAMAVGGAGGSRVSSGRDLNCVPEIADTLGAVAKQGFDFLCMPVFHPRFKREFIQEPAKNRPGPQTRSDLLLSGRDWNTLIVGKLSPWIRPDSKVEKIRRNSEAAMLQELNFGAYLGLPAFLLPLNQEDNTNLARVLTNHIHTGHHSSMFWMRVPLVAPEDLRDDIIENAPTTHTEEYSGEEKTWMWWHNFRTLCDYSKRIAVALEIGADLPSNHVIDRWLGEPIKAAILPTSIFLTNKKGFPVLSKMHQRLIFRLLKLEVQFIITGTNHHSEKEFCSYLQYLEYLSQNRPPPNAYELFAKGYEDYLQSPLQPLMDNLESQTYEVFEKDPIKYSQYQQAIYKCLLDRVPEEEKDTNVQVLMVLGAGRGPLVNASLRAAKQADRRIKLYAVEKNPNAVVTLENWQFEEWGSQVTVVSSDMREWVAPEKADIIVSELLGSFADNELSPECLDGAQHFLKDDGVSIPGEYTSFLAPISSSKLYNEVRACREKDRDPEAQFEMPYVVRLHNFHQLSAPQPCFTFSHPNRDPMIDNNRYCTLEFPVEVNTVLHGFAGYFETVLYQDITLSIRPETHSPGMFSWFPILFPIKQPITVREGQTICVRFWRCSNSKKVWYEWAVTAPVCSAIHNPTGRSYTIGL
Chain of PRMT5-MEP50 (Q9BQA1 whole entry partner): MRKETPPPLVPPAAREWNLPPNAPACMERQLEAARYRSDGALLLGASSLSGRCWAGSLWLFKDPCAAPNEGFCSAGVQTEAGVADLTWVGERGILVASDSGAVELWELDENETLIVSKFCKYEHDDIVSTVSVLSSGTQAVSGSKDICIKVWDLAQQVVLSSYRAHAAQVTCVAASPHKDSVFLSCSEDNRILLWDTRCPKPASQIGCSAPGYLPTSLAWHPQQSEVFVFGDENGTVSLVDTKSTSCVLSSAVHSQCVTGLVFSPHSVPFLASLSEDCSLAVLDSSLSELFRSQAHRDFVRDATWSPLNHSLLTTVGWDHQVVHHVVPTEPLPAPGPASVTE
Description: Assays were performed in a 25 μl-volume in 384-well V-bottom polypropylene microplates (Greiner Bio-One, cat. No. 781280) at ambient temperature. Optimized 1× assay buffer was 20 mM Tris-HCl pH 8.0, 1 mM DTT, […]. For compound screening PRMT5-MEP50 (final concentration, f.c.=2.5 nM) was added using a Multidrop Combi (ThermoFisher Scientific, Waltham, Mass.) and preincubated for 5 min. Reactions were started by adding 3′ biotinylated histone H4 peptide acetylated on serine 1 (Ac-[…]-Biotin) (f.c.=100 nM) and 3H-SAM (f.c.=250 nM) substrates. Reactions proceeded for 60 minutes and were quenched with excess non-radioactive SAM (f.c.=15 μM). The reactions were then transferred to streptavidin-coated flashplates and incubated for 2 hours at 25° C. Following two washing cycles with 0.1% Tween-20, the plates were sealed and read on a TopCount (PerkinElmer, Waltham, Mass.) plate-based scintillation counter. For determination of kinetic parameters, reaction times were optimized so that measurements were taken during the initial velocity phase of the reaction.

[1] = METTL3 biochemical assay, read-out: METTL3 IC50
[2] = PRMT5 biochemical assay, read-out: PRMT5 IC50

Chain of METTL3/METTL14 (Q86U44 whole entry, species assumed): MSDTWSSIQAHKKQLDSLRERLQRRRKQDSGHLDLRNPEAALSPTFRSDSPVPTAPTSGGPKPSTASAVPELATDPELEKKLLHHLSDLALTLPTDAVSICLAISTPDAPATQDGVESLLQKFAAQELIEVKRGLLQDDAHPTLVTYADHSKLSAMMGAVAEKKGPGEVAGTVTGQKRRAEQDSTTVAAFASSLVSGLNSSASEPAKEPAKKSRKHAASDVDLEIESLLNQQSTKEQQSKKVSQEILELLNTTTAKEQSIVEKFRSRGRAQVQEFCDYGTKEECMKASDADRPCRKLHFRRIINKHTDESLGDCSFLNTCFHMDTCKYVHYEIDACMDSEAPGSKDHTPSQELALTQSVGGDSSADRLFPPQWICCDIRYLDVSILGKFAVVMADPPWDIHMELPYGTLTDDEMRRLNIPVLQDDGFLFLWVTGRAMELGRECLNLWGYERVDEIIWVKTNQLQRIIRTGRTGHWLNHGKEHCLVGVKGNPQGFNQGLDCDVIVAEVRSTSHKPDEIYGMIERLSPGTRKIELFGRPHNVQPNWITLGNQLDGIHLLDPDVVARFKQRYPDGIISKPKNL
Chain of METTL3/METTL14 (Q9HCE5 whole entry partner, species assumed): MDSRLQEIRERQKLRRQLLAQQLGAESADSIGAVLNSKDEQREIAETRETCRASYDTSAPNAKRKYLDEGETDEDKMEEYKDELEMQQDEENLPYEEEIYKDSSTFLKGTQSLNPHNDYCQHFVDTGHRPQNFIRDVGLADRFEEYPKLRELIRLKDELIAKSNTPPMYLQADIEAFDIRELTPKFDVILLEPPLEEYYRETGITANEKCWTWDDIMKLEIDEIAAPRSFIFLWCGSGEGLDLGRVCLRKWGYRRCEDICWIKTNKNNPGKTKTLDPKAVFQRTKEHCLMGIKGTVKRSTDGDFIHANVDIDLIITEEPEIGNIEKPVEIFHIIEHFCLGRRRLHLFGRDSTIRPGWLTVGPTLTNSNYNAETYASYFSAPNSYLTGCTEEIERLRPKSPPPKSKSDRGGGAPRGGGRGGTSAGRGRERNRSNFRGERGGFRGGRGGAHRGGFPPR

CCc1cc(N(C)C2CC2)c2ccc(OC[C@H]3O[C@@H](n4ccc5c(N)ncnc54)C[C@@H]3O)cc2n1 [I-161]
IC50 (METTL3/METTL14; [1]): 0.01 to 0.1 µM

CN(CCS(C)(=O)=O)c1ccc2ccc(OC[C@H]3O[C@@H](n4cc(-c5ccn(C)n5)c5c(N)ncnc54)[C@@H](F)[C@@H]3O)cc2n1 [I-166]
IC50 (METTL3/METTL14): 0.1 to 1 µM
IC50 (PRMT5-MEP50): > 1 µM

CCc1nc2cc(OC[C@H]3O[C@@H](n4cc(-c5ccn(C)n5)c5c(N)ncnc54)[C@@H](F)[C@@H]3O)ccc2o1 [I-168]
IC50 (METTL3/METTL14): > 1 µM
IC50 (PRMT5-MEP50): > 1 µM

CCc1nc2cc(OC[C@H]3O[C@@H](n4cc(-c5ccn(C)n5)c5c(N)ncnc54)[C@@H](F)[C@@H]3O)ccc2[nH]1 [I-172]
IC50 (METTL3/METTL14): 0.1 to 1 µM
IC50 (PRMT5-MEP50): > 1 µM

CNc1nc2cc(OC[C@H]3O[C@@H](n4cc(-c5ccn(C)n5)c5c(N)ncnc54)[C@@H](F)[C@@H]3O)ccc2o1 [I-173]
IC50 (METTL3/METTL14): 0.1 to 1 µM
IC50 (PRMT5-MEP50): > 1 µM

Cn1ccc(-c2cn([C@@H]3O[C@H](COc4ccc(C(=O)N5CCNCC5)c(N)c4)[C@@H](O)[C@@H]3F)c3ncnc(N)c23)n1 [I-174]
IC50 (METTL3/METTL14): 0.1 to 1 µM
IC50 (PRMT5-MEP50): > 1 µM

Nc1cc(OC[C@H]2O[C@@H](n3ccc4c(N)ncnc43)[C@@H](F)[C@@H]2O)ccc1C(=O)N1CCNCC1 [I-175]
IC50 (METTL3/METTL14; [1]): > 1 µM
IC50 (PRMT5-MEP50; [2]): > 1 µM

CNc1nc2cc(OC[C@H]3O[C@@H](n4cc(-c5ccn(C)n5)c5c(N)ncnc54)[C@@H](F)[C@@H]3O)ccc2s1 [I-176]
IC50 (METTL3/METTL14): 0.1 to 1 µM
IC50 (PRMT5-MEP50): > 1 µM

Cn1ccc(-c2cn([C@@H]3O[C@H](COc4ccc5sc(N6CCC6)nc5c4)[C@@H](O)[C@@H]3F)c3ncnc(N)c23)n1 [I-177]
IC50 (METTL3/METTL14): 0.01 to 0.1 µM
IC50 (PRMT5-MEP50): > 1 µM

Cn1ccc(-c2cn([C@H]3C[C@H](O)[C@@H](COc4ccc5ccc(N6CC(N)C6)nc5c4)O3)c3ncnc(N)c23)n1 [I-182]
IC50 (METTL3/METTL14): < 0.01 µM
IC50 (PRMT5-MEP50): > 1 µM

Nc1ncnc2c1ccn2[C@H]1C[C@H](O)[C@@H](COc2ccc3ccc(N4CC(N)C4)nc3c2)O1 [I-184]
IC50 (METTL3/METTL14; [1]): 0.1 to 1 µM
IC50 (PRMT5-MEP50; [2]): 0.01 to 0.1 µM

Nc1ncnc2c1ccn2[C@@H]1O[C@H](COc2ccc3ccc(NC4CCC4)nc3c2)[C@@H](O)[C@@H]1F [I-185]
IC50 (METTL3/METTL14; [1]): < 0.01 µM
IC50 (PRMT5-MEP50; [2]): > 1 µM

Cc1ccn(-c2cn([C@@H]3O[C@H](COc4ccc5ccc(N6CC(N)C6)nc5c4)[C@@H](O)[C@@H]3F)c3ncnc(N)c23)n1 [I-186]
IC50 (METTL3/METTL14): 0.01 to 0.1 µM
IC50 (PRMT5-MEP50): 0.1 to 1 µM

Cc1ccn(-c2cn([C@@H]3O[C@H](COc4ccc5ccc(N6CC(O)C6)nc5c4)[C@@H](O)[C@@H]3F)c3ncnc(N)c23)n1 [I-187]
IC50 (METTL3/METTL14): < 0.01 µM
IC50 (PRMT5-MEP50): > 1 µM

Nc1ncnc2c1ccn2[C@@H]1O[C@H](COc2ccc3ccc(N4CC(N)C4)nc3c2)[C@@H](O)[C@@H]1F [I-188]
IC50 (METTL3/METTL14; [1]): 0.01 to 0.1 µM
IC50 (PRMT5-MEP50; [2]): > 1 µM

Cn1ccc(-c2cn([C@@H]3O[C@H](COc4ccc5ncc(N6CCC6)nc5c4)[C@@H](O)[C@@H]3F)c3ncnc(N)c23)n1 [I-189]
IC50 (METTL3/METTL14): 0.01 to 0.1 µM
IC50 (PRMT5-MEP50): > 1 µM

Nc1ncnc2c1ccn2[C@@H]1O[C@H](CCC2CCNCC2)[C@@H](O)[C@@H]1F [I-192]
IC50 (METTL3/METTL14; [1]): 0.1 to 1 µM
IC50 (PRMT5-MEP50; [2]): > 1 µM

CNc1ccc2sc(CC[C@H]3O[C@@H](n4ccc5c(N)ncnc54)[C@@H](F)[C@@H]3O)cc2n1 [I-193]
IC50 (METTL3/METTL14; [1]): 0.01 to 0.1 µM
IC50 (PRMT5-MEP50; [2]): 0.01 to 0.1 µM

Cn1ccc(-c2cn([C@H]3C[C@H](O)[C@@H](CCc4ccc5ccc(N6CCC6)nc5c4)O3)c3ncnc(N)c23)n1 [I-194]
IC50 (METTL3/METTL14): < 0.01 µM
IC50 (PRMT5-MEP50): > 1 µM

CNc1nc2cc(OC[C@H]3O[C@@H](n4cc(-n5cccn5)c5c(N)ncnc54)[C@@H](F)[C@@H]3O)ccc2s1 [I-195]
IC50 (METTL3/METTL14): 0.1 to 1 µM
IC50 (PRMT5-MEP50): > 1 µM

Cn1ccc(-c2cn([C@@H]3O[C@H](COc4ccc5ccc(NC6CNC6)nc5c4)[C@@H](O)[C@@H]3F)c3ncnc(N)c23)n1 [I-196]
IC50 (METTL3/METTL14): 0.1 to 1 µM
IC50 (PRMT5-MEP50): > 1 µM

Cn1ccc(-c2cn([C@@H]3O[C@H](COc4ccc5ccc(N[C@H]6C[C@H](N)C6)nc5c4)[C@@H](O)[C@@H]3F)c3ncnc(N)c23)n1 [I-197]
IC50 (METTL3/METTL14): 0.01 to 0.1 µM
IC50 (PRMT5-MEP50): 0.1 to 1 µM

Nc1ncnc2c1ccn2[C@H]1C[C@H](O)[C@@H](CCc2ccc3ccc(N4CCC4)nc3c2)O1 [I-198]
IC50 (METTL3/METTL14; [1]): 0.01 to 0.1 µM
IC50 (PRMT5-MEP50; [2]): > 1 µM

Cn1ccc(-c2cn([C@@H]3O[C@H](COc4ccc5ccc(NC67CC(C6)C7)nc5c4)[C@@H](O)[C@@H]3F)c3ncnc(N)c23)n1 [I-200]
IC50 (METTL3/METTL14): < 0.01 µM
IC50 (PRMT5-MEP50): 0.1 to 1 µM

Cn1ccc(-c2cn([C@@H]3O[C@H](COc4ccc5ccc(N[C@H]6C[C@@H](N)C6)nc5c4)[C@@H](O)[C@@H]3F)c3ncnc(N)c23)n1 [I-201]
IC50 (METTL3/METTL14): 0.01 to 0.1 µM
IC50 (PRMT5-MEP50): 0.1 to 1 µM

CN(c1ccc2ccc(OC[C@H]3O[C@@H](n4cc(-c5ccn(C)n5)c5c(N)ncnc54)[C@@H](F)[C@@H]3O)cc2n1)C1CCC1 [I-202]
IC50 (METTL3/METTL14): < 0.01 µM
IC50 (PRMT5-MEP50): > 1 µM

Cn1ccc(-c2cn([C@@H]3O[C@H](COc4ccc5ccc(C(=O)N6CCC6)nc5c4)[C@@H](O)[C@@H]3F)c3ncnc(N)c23)n1 [I-203]
IC50 (METTL3/METTL14): > 1 µM
IC50 (PRMT5-MEP50): > 1 µM

Nc1ncnc2c1ccn2[C@@H]1O[C@H](COc2ccc3ccc(N[C@H]4C[C@@H](N)C4)nc3c2)[C@@H](O)[C@@H]1F [I-204]
IC50 (METTL3/METTL14; [1]): 0.1 to 1 µM
IC50 (PRMT5-MEP50; [2]): 0.1 to 1 µM

CNc1nc2cc(OC[C@H]3O[C@@H](n4cc(-n5ccc(C)n5)c5c(N)ncnc54)C[C@@H]3O)ccc2cc1F [I-207]
IC50 (METTL3/METTL14): > 1 µM
IC50 (PRMT5-MEP50): > 1 µM

CNc1nc2cc(OC[C@H]3O[C@@H](n4cc(-c5ccn(C)n5)c5c(N)ncnc54)[C@@H](F)[C@@H]3O)ccc2[nH]1 [I-208]
IC50 (METTL3/METTL14): < 0.01 µM
IC50 (PRMT5-MEP50): 0.1 to 1 µM

CCNc1ccc2ccc(CC[C@H]3C[C@@H](n4cc(-n5cccn5)c5c(N)ncnc54)C[C@@H]3O)cc2n1 [I-209]
IC50 (METTL3/METTL14): < 0.01 µM

Nc1ncnc2c1c(-n1cccn1)cn2[C@@H]1C[C@H](CCc2cc3nc(N4CCC4)ccc3cc2F)[C@@H](O)C1 [I-210]
IC50 (METTL3/METTL14): < 0.01 µM
IC50 (PRMT5-MEP50): > 1 µM

CC1(C)COC(c2cn([C@@H]3O[C@H](COc4ccc5ccc(N6CCC6)nc5c4)[C@@H](O)[C@@H]3F)c3ncnc(N)c23)=N1 [I-213]
IC50 (METTL3/METTL14; [1]): < 0.01 µM
IC50 (PRMT5-MEP50; [2]): > 1 µM

CN(C)Cc1cn([C@@H]2O[C@H](COc3ccc4ccc(N5CCC5)nc4c3)[C@@H](O)[C@@H]2F)c2ncnc(N)c12 [I-214]
IC50 (METTL3/METTL14; [1]): < 0.01 µM
IC50 (PRMT5-MEP50; [2]): > 1 µM

Nc1ncnc2c1c(-c1cnccn1)cn2[C@@H]1O[C@H](COc2ccc3ccc(N4CCC4)nc3c2)[C@@H](O)[C@@H]1F [I-215]
IC50 (METTL3/METTL14): < 0.01 µM
IC50 (PRMT5-MEP50): > 1 µM

CN(C)C(=O)c1cn([C@@H]2O[C@H](COc3ccc4ccc(N5CCC5)nc4c3)[C@@H](O)[C@@H]2F)c2ncnc(N)c12 [I-216]
IC50 (METTL3/METTL14): 0.01 to 0.1 µM
IC50 (PRMT5-MEP50): 0.1 to 1 µM

Nc1ncnc2c1c([C@@H]1CCCO1)cn2[C@@H]1O[C@H](COc2ccc3ccc(N4CCC4)nc3c2)[C@@H](O)[C@@H]1F [I-224]
IC50 (METTL3/METTL14; [1]): < 0.01 µM
IC50 (PRMT5-MEP50; [2]): 0.1 to 1 µM

Nc1ncnc2c1c(-n1cccn1)cn2C1CC(CCc2ccc3ccc(NC4CCC4)nc3c2)C(O)C1F (centres unmarked) [I-235]
IC50 (METTL3/METTL14): 0.1 to 1 µM
IC50 (PRMT5-MEP50): 0.01 to 0.1 µM
